Patent US20040063696A1, “1,1-dioxo-2h-1,2-benzothiazine-3-carboxamide derivatives,method for preparing same and pharmaceutical compositions comprising same” (priority 2000, published 2004)

System: aggrecan
Test: Expression of aggrecan in articular chondrocytes treated with IL-1 (Northern blot)
Format: cell-based
Conditions: calf articular chondrocytes, compared with cultures treated with 10 ng/ml of IL-1
Description: The expression of aggrecan was analysed by Northern blot. Total RNA of cultures of calf articular chondrocytes (CAC) cultured in DMEM+10% FCS and treated with different concentrations of the test compounds, in the presence of IL-1 (10 ng/ml), were extracted, 10 μg of the total RNA were fractionated by electrophoresis on a 1% agarose gel in the presence of an MOPS-formaldehyde buffer, transferred to a nylon membrane and hybridised with a specific aggrecan cDNA probe.

Structure (SMILES): CC[N+](C)(CC)CCCNC(=O)C1=C(O)c2ccccc2S(=O)(=O)N1C.[I-] [Example 1, {3-[(4-Hydroxy-2-methyl-1,1-dioxo-2H-1,2-benzothiazin-3-yl)-carbonylamino]propyl}diethylmethylammonium iodide]
- stimulation of the expression of aggrecan (10^−6 M): 150%
- stimulation of the expression of aggrecan (10^−M (so in the source)): 200%
